Test results as given in patent US20140135270A1, “MACROCYCLIC COMPOUNDS FOR INHIBITION OF INHIBITORS OF APOPTOSIS” (Ensemble Therapeutics Corp., priority 2012, published 2014).

Tests used:
His-BIR3 (241-356, XIAP) = target: T1, His-BIR3 (241-356, XIAP) (Homo sapiens, UniProt P98170); assay: XIAP-BIR3/SMAC Homogeneous Time Resolved Fluorescence (HTRF) Assay; type: binding; settings: fluorescein labeled SMAC peptide
T1 construct: additions of His-BIR3 (241-356, XIAP), fluorescein labeled SMAC peptide

[1] = target: T2, His-BIR2-3 (125-356, C202A/C213G, XIAP) (Homo sapiens, UniProt P98170, C202A/C213G); assay: XIAP-BIR2-3 Dimeric SMAC Peptide Homogeneous Time Resolved Fluorescence (HTRF) Assay; type: binding; settings: fluorescein labeled dimeric SMAC peptide
T2 construct: additions of His-BIR2-3 (125-356, C202A/C213G, XIAP), fluorescein labeled dimeric SMAC peptide
T2 sequence (P98170 125-356 C202A/C213G): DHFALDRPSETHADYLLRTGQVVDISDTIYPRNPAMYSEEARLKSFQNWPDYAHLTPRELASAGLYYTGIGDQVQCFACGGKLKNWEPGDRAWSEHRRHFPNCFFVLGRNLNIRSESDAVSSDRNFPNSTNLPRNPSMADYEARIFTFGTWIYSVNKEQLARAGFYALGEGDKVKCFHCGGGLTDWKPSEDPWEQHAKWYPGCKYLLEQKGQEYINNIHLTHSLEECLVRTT

T1 sequence (P98170 241-356): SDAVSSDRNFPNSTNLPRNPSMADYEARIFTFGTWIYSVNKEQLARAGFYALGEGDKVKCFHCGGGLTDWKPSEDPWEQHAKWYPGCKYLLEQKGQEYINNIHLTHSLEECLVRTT

SMILES	IC50 (His-BIR3 (241-356, XIAP)) [nM]	IC50 [1] [nM]
CN[C@@H](C)C(=O)N[C@H](C(=O)N1C[C@@H]2C[C@H]1C(=O)N[C@@H](Cc1ccc3ccccc3c1)C(=O)N[C@H](C(=O)O)Cc1ccc(cc1)C(=O)N[C@H]1C[C@@H](C(=O)N[C@@H](Cc3ccc4ccccc4c3)C(=O)N[C@H](C(=O)O)Cc3ccc(cc3)OC/C=C/CO2)N(C(=O)[C@@H](NC(=O)[C@H](C)NC)C(C)(C)C)C1)C1CCOCC1 [Example 66]	5.2	1.3
CN[C@@H](C)C(=O)N[C@H](C(=O)N1C[C@@H]2C[C@H]1C(=O)N[C@@H](Cc1ccc3ccccc3c1)C(=O)N[C@H](C(=O)O)Cc1ccc(cc1)OC/C=C/CO[C@H]1C[C@@H](C(=O)N[C@@H](Cc3ccc4ccccc4c3)C(=O)N[C@H](C(=O)O)Cc3ccc(cc3)C(=O)N2)N(C(=O)[C@@H](NC(=O)[C@H](C)N(C)C(C)=O)C(C)(C)C)C1)C(C)(C)C [Example 73]	29.3	440
CN[C@@H](C)C(=O)N[C@H](C(=O)N[C@H]1C/C=C\CC[C@@H](C(=O)O)NC(=O)[C@H](Cc2ccc3ccccc3c2)NC(=O)[C@@H]2CN(CCN2C(=O)[C@@H](NC(=O)[C@H](C)NC)C(C)(C)C)C(=O)CNC(=O)CC[C@@H](C(=O)O)NC(=O)[C@H](Cc2ccc3ccccc3c2)NC1=O)C(C)(C)C [Example 76]	293	14.6
CN[C@@H](C)C(=O)N[C@H](C(=O)N[C@H]1C/C=C/CC[C@@H](C(=O)O)NC(=O)[C@H](Cc2ccc3ccccc3c2)NC(=O)[C@@H]2CN(CCN2C(=O)[C@@H](NC(=O)[C@H](C)NC)C(C)(C)C)C(=O)CNC(=O)CC[C@@H](C(=O)O)NC(=O)[C@H](Cc2ccc3ccccc3c2)NC1=O)C(C)(C)C [Example 77]	206	12.1
CN[C@@H](C)C(=O)N[C@H](C(=O)N[C@H]1C/C=C/COc2ccc(cc2)C[C@@H](C(=O)O)NC(=O)[C@H](Cc2ccc3ccccc3c2)NC(=O)[C@@H]2CN(CCN2C(=O)[C@@H](NC(=O)[C@H](C)NC)C(C)(C)C)C(=O)CNC(=O)CC[C@@H](C(=O)O)NC(=O)[C@H](Cc2ccc3ccccc3c2)NC1=O)C(C)(C)C [Example 78]	82.4	4.7
CN[C@@H](C)C(=O)NC(C(=O)N1C[C@@H]2C[C@H]1C(=O)N[C@@H](Cc1ccc3ccccc3c1)C(=O)N[C@H](C(=O)O)Cc1ccc(cc1)OC/C=C/C(=O)N1CCN(C(=O)[C@@H](NC(=O)[C@H](C)NC)C(C)(C)C)[C@@H](C1)C(=O)N[C@@H](Cc1ccc3ccccc3c1)C(=O)N[C@H](C(=O)O)CCC(=O)N2)C(C)(C)C (some centres unmarked) [Example 79]	44.3	5.6
CN[C@@H](C)C(=O)N[C@H](C(=O)N[C@H]1C/C=C/CC[C@@H](C(=O)O)NC(=O)[C@H](Cc2ccc3ccccc3c2)NC(=O)[C@@H]2CN(CCNC(=O)CC[C@@H](C(=O)O)NC(=O)[C@H](Cc3ccc4ccccc4c3)NC1=O)CCN2C(=O)[C@@H](NC(=O)[C@H](C)NC)C(C)(C)C)C(C)(C)C [Example 80]	373	6.8
CN[C@@H](C)C(=O)N[C@H](C(=O)N[C@H]1C/C=C/CC[C@@H](C(=O)O)NC(=O)[C@H](Cc2ccccc2)NC(=O)[C@@H]2CN(CCNC(=O)CC[C@@H](C(=O)O)NC(=O)[C@H](Cc3ccccc3)NC1=O)CCN2C(=O)[C@@H](NC(=O)[C@H](C)NC)C(C)C)C(C)C [Example 81]	26	1.1
CC(C)[C@H](NC(=O)[C@H](C)N(C)C(=O)OC(C)(C)C)C(=O)N[C@H]1C/C=C/CC[C@@H](C(=O)O)NC(=O)[C@H](Cc2ccccc2)NC(=O)[C@@H]2CN(CCNC(=O)CC[C@@H](C(=O)OC(C)(C)C)NC(=O)[C@H](Cc3ccccc3)NC1=O)CCN2C(=O)[C@@H](NC(=O)[C@H](C)N(C)C(=O)OC(C)(C)C)C(C)C [Example 82]	1100	2090
CN[C@@H](C)C(=O)N[C@H](C(=O)N1C[C@@H]2C[C@H]1C(=O)N[C@@H](Cc1ccc3ccccc3c1)C(=O)NC(C(=O)O)Cc1ccc(cc1)OC/C=C/CO[C@H]1C[C@@H](C(=O)N[C@@H](Cc3ccc4ccccc4c3)C(=O)N[C@H](C(=O)O)Cc3ccc(cc3)O2)N(C(=O)[C@@H](NC(=O)[C@H](C)NC)C(C)(C)C)C1)C(C)(C)C (some centres unmarked) [Example 84]	2.9	1.3
CN[C@@H](C)C(=O)N[C@H](C(=O)N1C[C@@H]2C[C@H]1C(=O)N[C@@H](Cc1ccc3ccccc3c1)C(=O)N[C@H](C(=O)O)Cc1ccc(cc1)C(=O)N[C@H]1C[C@@H](C(=O)N[C@@H](Cc3ccc4ccccc4c3)C(=O)N[C@H](C(=O)O)Cc3ccc(cc3)C(=O)N2)N(C(=O)[C@@H](NC(=O)[C@H](C)NC)C(C)(C)C)C1)C(C)(C)C [Example 85]	16.8	2.5
CN[C@@H](C)C(=O)N[C@H](C(=O)N1C[C@@H]2C[C@H]1C(=O)N[C@@H](Cc1ccc3ccccc3c1)C(=O)N[C@H](C(=O)O)Cc1ccc(cc1)OC/C=C/C[C@H]1C[C@@H](C(=O)N[C@@H](Cc3ccc4ccccc4c3)C(=O)N[C@H](C(=O)NS(=O)(=O)C3CC3)Cc3ccc(cc3)OCc3cn2nn3)N(C(=O)[C@@H](NC(=O)[C@H](C)NC)C(C)(C)C)C1)C(C)(C)C [Example 86]	1.7	1.1
CN[C@@H](C)C(=O)N[C@H](C(=O)N1C[C@@H]2C[C@H]1C(=O)N[C@@H](Cc1ccc3ccccc3c1)C(=O)N[C@H](C(=O)O)Cc1ccc(cc1)OCCCC[C@H]1C[C@@H](C(=O)N[C@@H](Cc3ccc4ccccc4c3)C(=O)N[C@H](C(=O)NS(=O)(=O)C3CC3)Cc3ccc(cc3)OCc3cn2nn3)N(C(=O)[C@@H](NC(=O)[C@H](C)NC)C(C)(C)C)C1)C(C)(C)C [Example 87]	2.4	1.3
CN[C@@H](C)C(=O)N[C@H](C(=O)N1C[C@H]2C/C=C/COc3ccc(cc3)C[C@@H](C(=O)NS(=O)(=O)C3CC3)NC(=O)[C@H](Cc3ccc4ccccc4c3)NC(=O)[C@@H]3C[C@H](C/C=C/COc4ccc(cc4)C[C@@H](C(=O)O)NC(=O)[C@H](Cc4ccc5ccccc5c4)NC(=O)[C@@H]1C2)CN3C(=O)[C@@H](NC(=O)[C@H](C)NC)C(C)(C)C)C(C)(C)C [Example 88]	3.9	1.7
CN[C@@H](C)C(=O)N[C@H](C(=O)N1C[C@H]2CCCCOc3ccc(cc3)C[C@@H](C(=O)NS(=O)(=O)C3CC3)NC(=O)[C@H](Cc3ccc4ccccc4c3)NC(=O)[C@@H]3C[C@H](CCCCOc4ccc(cc4)C[C@@H](C(=O)O)NC(=O)[C@H](Cc4ccc5ccccc5c4)NC(=O)[C@@H]1C2)CN3C(=O)[C@@H](NC(=O)[C@H](C)NC)C(C)(C)C)C(C)(C)C [Example 89]	5.9	3

Next, values leading:

IC50 (His-BIR3 (241-356, XIAP)) [nM]	IC50 [1] [nM]	SMILES
14.3	1.9	CN[C@@H](C)C(=O)N[C@H](C(=O)N1C[C@@H]2C[C@H]1C(=O)N[C@@H](Cc1ccc3ccccc3c1)C(=O)N[C@H](C(=O)O)Cc1ccc(cc1)C(=O)N[C@H]1C[C@@H](C(=O)N[C@@H](Cc3ccc4ccccc4c3)C(=O)N[C@H](C(=O)O)Cc3ccc(cc3)OC/C=C/CO2)N(C(=O)[C@@H](NC(=O)[C@H](C)NC)C(C)(C)C)C1)C(C)O (some centres unmarked) [Example 65]
15.5	2.7	CN[C@@H](C)C(=O)N[C@H](C(=O)N1C[C@@H]2C[C@H]1C(=O)N[C@@H](Cc1ccc3ccccc3c1)C(=O)N[C@H](C(=O)O)Cc1ccc(cc1)C(=O)N[C@H]1C[C@@H](C(=O)N[C@@H](Cc3ccc4ccccc4c3)C(=O)N[C@H](C(=O)O)Cc3ccc(cc3)OC/C=C/CO2)N(C(=O)[C@@H](NC(=O)[C@H](C)NC)C(C)(C)C)C1)C(C)C [Example 68]
16.4	3.2	CN[C@@H](C)C(=O)N[C@@H](CC1CCCCC1)C(=O)N1C[C@@H]2C[C@H]1C(=O)N[C@@H](Cc1ccc3ccccc3c1)C(=O)N[C@H](C(=O)O)Cc1ccc(cc1)C(=O)N[C@H]1C[C@@H](C(=O)N[C@@H](Cc3ccc4ccccc4c3)C(=O)N[C@H](C(=O)O)Cc3ccc(cc3)OC/C=C/CO2)N(C(=O)[C@@H](NC(=O)[C@H](C)NC)C(C)(C)C)C1 [Example 69]
9.3	2	CN[C@@H](C)C(=O)N[C@@H](Cc1ccccc1)C(=O)N1C[C@@H]2C[C@H]1C(=O)N[C@@H](Cc1ccc3ccccc3c1)C(=O)N[C@H](C(=O)O)Cc1ccc(cc1)C(=O)N[C@H]1C[C@@H](C(=O)N[C@@H](Cc3ccc4ccccc4c3)C(=O)N[C@H](C(=O)O)Cc3ccc(cc3)OC/C=C/CO2)N(C(=O)[C@@H](NC(=O)[C@H](C)NC)C(C)(C)C)C1 [Example 70]
27.9	3.7	CN[C@@H](C)C(=O)N[C@H](C(=O)N1C[C@@H]2C[C@H]1C(=O)N[C@@H](Cc1ccc3ccccc3c1)C(=O)N[C@H](C(=O)O)Cc1ccc(cc1)C(=O)N[C@H]1C[C@@H](C(=O)N[C@@H](Cc3ccc4ccccc4c3)C(=O)N[C@H](C(=O)O)Cc3ccc(cc3)OC/C=C/CO2)N(C(=O)[C@@H](NC(=O)[C@H](C)NC)C(C)(C)C)C1)C1CCCCC1 [Example 71]
48.5	9.3	CN[C@@H](C)C(=O)N[C@@H](CC(N)=O)C(=O)N1C[C@@H]2C[C@H]1C(=O)N[C@@H](Cc1ccc3ccccc3c1)C(=O)N[C@H](C(=O)O)Cc1ccc(cc1)C(=O)N[C@H]1C[C@@H](C(=O)N[C@@H](Cc3ccc4ccccc4c3)C(=O)N[C@H](C(=O)O)Cc3ccc(cc3)OC/C=C/CO2)N(C(=O)[C@@H](NC(=O)[C@H](C)NC)C(C)(C)C)C1 [Example 72]
9.7	1.7	CN[C@@H](C)C(=O)N[C@H](C(=O)N1C[C@@H]2C[C@H]1C(=O)N[C@@H](Cc1ccc3ccccc3c1)C(=O)N[C@H](C(=O)O)Cc1ccc(cc1)C(=O)N[C@H]1C[C@@H](C(=O)N[C@@H](Cc3ccc4ccccc4c3)C(=O)N[C@H](C(=O)O)Cc3ccc(cc3)OC/C=C/CO2)N(C(=O)[C@@H](NC(=O)[C@H](C)NC)C(C)(C)C)C1)C(C)C [Example 75]
